Data from US20040014047A1, “Antisense modulation of LIM domain kinase 1 expression” (Isis Pharmaceuticals Inc., priority 2002, published 2004).
Strand notation (5' to 3'): a small letter for the sugar, then the base; units joined by * are phosphorothioate-linked, units joined directly phosphodiester-linked; [ ] holds rarer units or linkages, { } end groups; capitals alone tell only the bases. e = 2'-O-(2-methoxyethyl) (MOE); [5mC] = 5-methylcytosine; d = 2'-deoxy (DNA)

Test system: human LIM domain kinase 1 mRNA
Test: Antisense inhibition of human LIM domain kinase 1 mRNA levels, quantitative real-time PCR, A549 cells (screen)
Assay type: cell-based
Conditions: quantitative real-time PCR, averages from two experiments, screening concentration not given (50 nM to 300 nM used herein)
Method: When cells reached 70% confluency, they were treated with oligonucleotide. […] Cells were harvested 16-24 hours after oligonucleotide treatment.
Vacuum was applied for 1 minute.
PCR reagents were obtained from Invitrogen Corporation, (Carlsbad, Calif.).
Total RNA is quantified using RiboGreenTM RNA quantification reagent from Molecular Probes.
Probes and primers to human LIM domain kinase 1 were designed to hybridize to a human LIM domain kinase 1 sequence, using published sequence information (GenBank accession number D26309.1, incorporated herein as SEQ ID NO:4). For human LIM domain kinase 1 the PCR primers were: forward primer: […] (SEQ ID NO: 5) reverse primer: […] (SEQ ID NO: 6) and the PCR probe was: FAM-[…]-TAMRA (SEQ ID NO: 7) where FAM is the fluorescent dye and TAMRA is the quencher dye.
All cytidine residues are 5-methylcytidines. […] Data are averages from two experiments in which A549 cells were treated with the oligonucleotides of the present invention. […] If present, “N.D.” indicates “no data”.

Substance	% INHIB (inhibition of human LIM domain kinase 1 mRNA levels) [%]
206195 (antisense eT*e[5mC]*eA*e[5mC]*eG*dG*dT*dG*dT*dG*dT*d[5mC]*dA*d[5mC]*d[5mC]*eT*eT*eG*eA*eT) [compound 206195]	73
206171 (eA*eG*eG*eG*e[5mC]*d[5mC]*dT*dG*dG*dA*dG*dG*dT*dA*d[5mC]*eT*eG*eG*e[5mC]*e[5mC]; antisense) [compound 206171]	83
206169 (e[5mC]*eT*eT*e[5mC]*e[5mC]*dT*d[5mC]*dT*d[5mC]*d[5mC]*d[5mC]*dA*dT*dA*d[5mC]*eG*eT*eT*e[5mC]*eT; antisense) [compound 206169]	67
206178 (antisense eA*eG*eT*eA*e[5mC]*dA*dG*d[5mC]*dT*dT*dG*dG*dA*dG*dT*eG*e[5mC]*eT*e[5mC]*e[5mC]) [compound 206178]	69
206181 (antisense eT*e[5mC]*eT*eT*e[5mC]*dA*d[5mC]*dA*dT*d[5mC]*dT*dG*dG*dG*d[5mC]*eT*e[5mC]*eA*eT*eG) [compound 206181]	54
206189 (antisense eG*eT*eT*eT*e[5mC]*dT*dG*d[5mC]*d[5mC]*dG*dG*dG*d[5mC]*dA*dG*eA*eG*e[5mC]*eT*eG) [compound 206189]	81
206173 (eA*eG*eT*eA*eG*dT*d[5mC]*d[5mC]*dT*dT*d[5mC]*dT*dT*dG*d[5mC]*eA*eG*eA*eA*eG; antisense) [compound 206173]	71
206193 (antisense eA*eG*eG*eT*e[5mC]*d[5mC]*dT*dT*dG*d[5mC]*dG*d[5mC]*dT*dG*dG*eG*eA*eG*eG*e[5mC]) [compound 206193]	67
206227 (antisense e[5mC]*eT*e[5mC]*eA*eG*dA*d[5mC]*d[5mC]*d[5mC]*dT*dT*dG*dA*dG*dT*eT*eA*e[5mC]*eT*eG) [compound 206227]	68
206238 (antisense eG*e[5mC]*eA*eT*eG*dA*dA*dG*dG*d[5mC]*dA*d[5mC]*dT*dA*d[5mC]*e[5mC]*eT*e[5mC]*e[5mC]*e[5mC]) [compound 206238]	53
206210 (antisense e[5mC]*e[5mC]*eT*e[5mC]*e[5mC]*dA*dG*dG*dG*dA*dG*d[5mC]*dT*dA*dT*eG*eG*eA*e[5mC]*e[5mC]) [compound 206210]	83
206223 (antisense eG*eG*eT*eG*eT*dG*dT*d[5mC]*dA*d[5mC]*d[5mC]*dT*dT*dG*dA*eT*eA*eG*e[5mC]*e[5mC]) [compound 206223]	62
206216 (antisense eT*e[5mC]*eA*e[5mC]*eA*dG*dT*dT*dT*dT*dA*dA*dT*dA*d[5mC]*eT*eT*e[5mC]*e[5mC]*eT) [compound 206216]	0
206206 (antisense e[5mC]*eG*e[5mC]*e[5mC]*eG*dG*dT*dA*dG*dG*dT*d[5mC]*dT*d[5mC]*d[5mC]*e[5mC]*eA*eG*eA*eA) [compound 206206]	28
206188 (antisense eT*e[5mC]*eG*eA*eG*dG*dG*dT*d[5mC]*dA*dG*d[5mC]*dT*dG*dG*eA*eG*e[5mC]*eA*eG) [compound 206188]	71
206167 (eA*eT*eA*e[5mC]*eG*dT*dT*d[5mC]*dT*dT*d[5mC]*d[5mC]*d[5mC]*dT*d[5mC]*e[5mC]*eA*eG*eG*eT; antisense) [compound 206167]	85
206208 (antisense e[5mC]*e[5mC]*eA*e[5mC]*e[5mC]*dT*d[5mC]*d[5mC]*d[5mC]*dG*d[5mC]*dG*dG*dA*dG*eG*eA*eA*eT*e[5mC]) [compound 206208]	79
206172 (eT*e[5mC]*e[5mC]*eT*eT*d[5mC]*dT*dT*dG*d[5mC]*dA*dG*dA*dA*dG*eA*eG*e[5mC]*eT*eG; antisense) [compound 206172]	76
206176 (antisense e[5mC]*eG*e[5mC]*e[5mC]*eA*dT*dA*dG*d[5mC]*dG*dG*dG*d[5mC]*d[5mC]*d[5mC]*eA*eG*eT*eA*eG) [compound 206176]	87
206229 (antisense eG*eT*e[5mC]*eA*e[5mC]*dA*dA*d[5mC]*dA*d[5mC]*d[5mC]*dT*dG*d[5mC]*dA*eG*eG*eA*eG*eA) [compound 206229]	66
206211 (antisense eT*e[5mC]*eT*eG*e[5mC]*d[5mC]*d[5mC]*dT*dG*dA*dT*dG*dT*dG*d[5mC]*eG*e[5mC]*e[5mC]*e[5mC]*eT) [compound 206211]	59
206228 (antisense eA*e[5mC]*eT*eG*e[5mC]*d[5mC]*dT*d[5mC]*dT*d[5mC]*dG*dG*dG*dT*dT*e[5mC]*eA*eA*eG*e[5mC]) [compound 206228]	69
206235 (antisense eT*eA*eG*e[5mC]*eT*dG*dG*dG*dA*dT*dT*dA*d[5mC]*dA*dG*eT*eA*e[5mC]*eT*eA) [compound 206235]	53

Same assay, conditions: real-time PCR, bound stated

Substance	inhibition of human LIM domain kinase 1 expression (text summary of Table 1)
aacctcatgcactcgacggg (eA*eA*e[5mC]*e[5mC]*eT*d[5mC]*dA*dT*dG*d[5mC]*dA*d[5mC]*dT*d[5mC]*dG*eA*e[5mC]*eG*eG*eG; antisense) [ISIS 206161]	at least 65%
atttccaagatccggtctcc (eA*eT*eT*eT*e[5mC]*d[5mC]*dA*dA*dG*dA*dT*d[5mC]*d[5mC]*dG*dG*eT*e[5mC]*eT*e[5mC]*e[5mC]; antisense) [ISIS 206184]	at least 65%
ctgctgcagccgtatgaaaa (e[5mC]*eT*eG*e[5mC]*eT*dG*d[5mC]*dA*dG*d[5mC]*d[5mC]*dG*dT*dA*dT*eG*eA*eA*eA*eA; antisense) [ISIS 206162]	at least 65%
agtacagcttggagtgctcc (eA*eG*eT*eA*e[5mC]*dA*dG*d[5mC]*dT*dT*dG*dG*dA*dG*dT*eG*e[5mC]*eT*e[5mC]*e[5mC]; antisense) [ISIS 206178]	at least 65%
atacgttcttccctccaggt (eA*eT*eA*e[5mC]*eG*dT*dT*d[5mC]*dT*dT*d[5mC]*d[5mC]*d[5mC]*dT*d[5mC]*e[5mC]*eA*eG*eG*eT; antisense) [ISIS 206167]	at least 65%
ggcccagtagtccttcttgc (eG*eG*e[5mC]*e[5mC]*e[5mC]*dA*dG*dT*dA*dG*dT*d[5mC]*d[5mC]*dT*dT*e[5mC]*eT*eT*eG*e[5mC]; antisense) [ISIS 206174]	at least 65%
aggtccttgcgctgggaggc (eA*eG*eG*eT*e[5mC]*d[5mC]*dT*dT*dG*d[5mC]*dG*d[5mC]*dT*dG*dG*eG*eA*eG*eG*e[5mC]; antisense) [ISIS 206193]	at least 65%
ccaggtgagtgtgcaaggca (e[5mC]*e[5mC]*eA*eG*eG*dT*dG*dA*dG*dT*dG*dT*dG*d[5mC]*dA*eA*eG*eG*e[5mC]*eA; antisense) [ISIS 206230]	at least 65%
actgcctctcgggttcaagc (eA*e[5mC]*eT*eG*e[5mC]*d[5mC]*dT*d[5mC]*dT*d[5mC]*dG*dG*dG*dT*dT*e[5mC]*eA*eA*eG*e[5mC]; antisense) [ISIS 206228]	at least 65%
cgccatagcgggcccagtag (e[5mC]*eG*e[5mC]*e[5mC]*eA*dT*dA*dG*d[5mC]*dG*dG*dG*d[5mC]*d[5mC]*d[5mC]*eA*eG*eT*eA*eG; antisense) [ISIS 206176]	at least 65%
ttcttccctccaggtgcaac (eT*eT*e[5mC]*eT*eT*d[5mC]*d[5mC]*d[5mC]*dT*d[5mC]*d[5mC]*dA*dG*dG*dT*eG*e[5mC]*eA*eA*e[5mC]; antisense) [ISIS 206166]	at least 65%
agtagtccttcttgcagaag (eA*eG*eT*eA*eG*dT*d[5mC]*d[5mC]*dT*dT*d[5mC]*dT*dT*dG*d[5mC]*eA*eG*eA*eA*eG; antisense) [ISIS 206173]	at least 65%
ggtccttgcgctgggaggcc (eG*eG*eT*e[5mC]*e[5mC]*dT*dT*dG*d[5mC]*dG*d[5mC]*dT*dG*dG*dG*eA*eG*eG*e[5mC]*e[5mC]; antisense) [ISIS 206233]	at least 65%
gccattgatttccaagatcc (eG*e[5mC]*e[5mC]*eA*eT*dT*dG*dA*dT*dT*dT*d[5mC]*d[5mC]*dA*dA*eG*eA*eT*e[5mC]*e[5mC]; antisense) [ISIS 206185]	at least 65%
